Experiment [1] is described as follows: Binding affinity to Pyrococcus horikoshii sodium-coupled aspartate transporter.
In experiment [2] the target is Glutamate transporter homolog (Pyrococcus horikoshii (strain ATCC 700860 / DSM 12428 / JCM 9974 /NBRC 100139 / OT-3), UniProt O59010, D405N). The experiment in a line: Binding affinity to Pyrococcus horikoshii sodium-coupled aspartate transporter D405N mutant in presence of NaCl.
A further experiment deals with Pyrococcus horikoshii. The experiment in a line: Inhibition of [3H]L-aspartate uptake at Pyrococcus horikoshii sodium-coupled aspartate transporter in presence of thallium.
Experiment [3] in a line: Binding affinity to Pyrococcus horikoshii sodium-coupled aspartate transporter by isothermal titration calorimetry in presence of NaCl. (ITC needs no label: the signal is the heat of the interaction.)

Activity calls are given as the source filed them. The rule behind the calls is not given here.

Chain of Glutamate transporter homolog (O59010 whole entry D405N): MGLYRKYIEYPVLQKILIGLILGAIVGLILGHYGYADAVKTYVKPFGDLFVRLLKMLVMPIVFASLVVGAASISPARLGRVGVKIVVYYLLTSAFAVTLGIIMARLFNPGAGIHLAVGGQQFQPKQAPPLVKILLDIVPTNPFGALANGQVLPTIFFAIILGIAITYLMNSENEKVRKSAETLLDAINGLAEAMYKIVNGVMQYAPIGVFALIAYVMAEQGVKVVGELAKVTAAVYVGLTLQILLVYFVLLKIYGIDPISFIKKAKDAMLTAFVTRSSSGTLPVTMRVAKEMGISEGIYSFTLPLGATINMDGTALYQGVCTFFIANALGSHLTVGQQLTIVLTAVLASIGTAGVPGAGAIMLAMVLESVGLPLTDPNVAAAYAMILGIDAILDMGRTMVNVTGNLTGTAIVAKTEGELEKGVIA

The Kd is the free concentration of one partner at which half of the binding sites on the other are occupied at equilibrium, for simple one-to-one binding. In turn, `N[C@@H](CS(=O)O)C(=O)O` displayed a Kd in experiment [1] of 0.02 µM. Take `NC(C(=O)O)C(OCc1ccccc1)C(=O)O` (racemic): the Kd in experiment [2] came out at 0.1 µM.

`N[C@@H](CO)C(=O)O` [SERINE] yielded a Kd in experiment [1] of 160 µM. `N[C@H](CC(=O)O)C(=O)O` [D-ASPARTATE] gave a Kd in experiment [1] of 0.009 µM.

`O=C(O)CCC(=O)O` [SUCCINIC ACID] displayed a Kd in experiment [1] of 1450 µM. The same measure, in the same setting: as for `N[C@@H](CCC(=O)O)C(=O)O` [GLUTAMIC ACID], the figure is 122 µM; as for `N[C@H](CCC(=O)O)C(=O)O` [D-GLUTAMATE], 162 µM.

For `N[C@@H](CC(=O)O)C(=O)O` [ASPARTIC ACID], the outcome in the experiment with Pyrococcus horikoshii was inactive. In experiment [3], the Kd is 0.094 µM.

The values are drawn from ChEMBL document CHEMBL1147051, “Coupling substrate and ion binding to extracellular gate of a sodium-dependent aspartate transporter” (Nature, 2007).
